pA2 data for ten molecules are collected here from ChEMBL document CHEMBL1122154, “Serotonin receptor affinity of cathinone and related analogues” (J Med Chem, 1982).

What is called pA2 is the negative logarithm of the molar antagonist concentration that doubles the agonist concentration needed for the same response. A lower pA2 goes with a weaker antagonist.

Molecules are shown by their SMILES.

The test deals with Serotonin (5-HT) receptor. Description: Affinity for 5-hydroxytryptamine receptor was determined using male Dawley rat fundus preparation. The test is classed as protein assay.
`NC1CCc2ccccc2C1` (stereo not given) came in with a pA2 of 5.61.
On to `COc1ccc2c(c1)C(CN)CCO2` (stereo not given), for which the pA2 came out at 5.94.
Turning to `NCC1=CCCc2ccccc21`, the pA2 was found to be 5.81. The pA2 values of the last two molecules are within 0.2 log units of each other.
The same measure for `COc1ccc(C(=O)C(C)N)cc1OC` (racemic): 6.14; for `COc1ccc2c(c1)C(CN)=CCO2`: 6.12; for `NC1CCc2ccccc2C1=O` (stereo not given): 6.04.
For the molecule `CC(N)C(=O)c1ccc(O)cc1` (racemic) [HYDROXYLATED COMPLETELY DELAKYLATED DIETHYLPROPION], the pA2 amounted to 5.3.
Consider `NCC1=CCOc2ccccc21`, for which the pA2 amounted to 4.94.
For `NCC(N)c1ccccc1` (racemic) the value was 4.9; for `CC(N)C(=O)c1ccccc1` (stereo not given) [DEALKYLATED DIETHYLPROPION], 5.86.
